Measured values as given in patent publication US20250041232A1, “MICROSPHERES COMPRISING HIGH-DOSE VARENICLINE, METHOD FOR PREPARING SAME, AND PHARMACEUTICAL COMPOSITION COMPRISING SAME” (AULBIO CO., LTD., priority 2021, published 2025).

Test: Measurement of varenicline loading amount and encapsulation efficiency in microspheres (HPLC)
Type: physicochemical
Details: microspheres dissolved in acetonitrile/80% methanol, HPLC-UV
Procedure: About 10 mg of the microspheres prepared in Example 2 and Comparative Examples 1 and 2 were taken, placed in a 20 mL flask, and completely dissolved in 2 mL of acetonitrile (manufacturer: Honeywell). It was adjusted to the mark with 80% methanol (manufacturer: Honeywell) and filtered through a 0.45 μm syringe filter. This solution was detected with an ultraviolet-visible spectrophotometer using HPLC (equipment name: Agilent). L1 (inner diameter 4.6 mm×150 mm, thickness 5 μm) was used as the column.

Encapsulation efficiency (%): more than 90%
Substance: varenicline pamoate salt
